Source: patent publication US10898510B2, “Sulphated hyaluronic acids functionalised with dopamine” (priority 2016, dated 2021)

Tested on: Staphylococcus aureus
Assay: In vitro inhibition of S. aureus bacterial growth, titanium cylinder functionalized with HAS2-DOPA or HA-DOPA and Gentamicin
Assay type: cell-based
Settings: Daptomycin at the same concentrations instead of Gentamicin
Description: The following were prepared:
a solution of HA-DOPA (23%, Example 12) in 0.1 M PBS, pH=8; […]
Identical treatment was applied to the other two titanium cylinders, of equal size, which were sprayed first with the HA-DOPA derivative solution and then with the Gentamicin solution, by the procedures described above.
Finally, two other titanium cylinders, of identical size, were sprayed with the PBS solution and then with the Gentamicin solution, by the procedures described above.
Each cylinder (total: 6) was then immersed once in MQ water for 5 seconds, left to air-dry for 15 minutes and inserted in a culture broth (Buffered Peptone Water: peptone 10.0 g/L, sodium chloride 5.0 g/L, anhydrous disodium phosphate 3.6 g/L, potassium phosphate 1.5 g/L, Biokar Diagnostics) inoculated with 600,000,000 CFU/mL of Staphylococcus aureus. The broth was incubated at 37° C., and at pre-set times (6 h, 12 h, 24 h, 48 h, 144 h) 1 mL of supernatant was taken up and diluted scalarly 1:10 (according to the bacterial growth), with sterile saline solution, for plate seeding (PCA—Plate Count Agar: tryptone 5.0 g/L, yeast extract 2.5 g/L, glucose 1.0 g/L, bacteriological agar 12.0 g/L. Manufactured by Biokar Diagnostics). The CFU/mL count was then conducted.
The percentage bacterial growth inhibition data over time compared with the initial inoculum of 600 million CFU/mL of S. aureus are set out in FIG. 4.

Q: How did the “activity profile in similar experiment with Daptomycin” value turn out when `CCCCCCCCCC(=O)N[C@@H](Cc1c[nH]c2ccccc12)C(=O)N[C@H](CC(N)=O)C(=O)N[C@@H](CC(=O)O)C(=O)N[C@@H]1C(=O)NCC(=O)N[C@@H](CCCN)C(=O)N[C@@H](CC(=O)O)C(=O)N[C@H](C)C(=O)N[C@@H](CC(=O)O)C(=O)NCC(=O)N[C@H](CO)C(=O)N[C@@H]([C@H](C)CC(=O)O)C(=O)N[C@@H](CC(=O)c2ccccc2N)C(=O)O[C@@H]1C` [Daptomycin] was run?
A: Its value is “identical activity profile”.
